Test system: HCV genotype-1a variant with glutamine 30 changed to glutamate in the NS5A protein
Format: cell-based
Conditions: test compound titrated with BMS-790052 fixed at 200 nM; genotype 1a Q30E replicon
Summary of the method: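 Synergy was assessed by combining several fixed amounts of an NS5A-targeting compound with a titration of the second compound of interest.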

Structure (SMILES) | Fold-Synergistic 1a (Q30E) [fold]
CC(C)(C)[C@H](Nc1ncccn1)c1nc(-c2ccc(-c3ccc(-c4c[nH]c([C@@H](Nc5ncc(Br)cn5)C(C)(C)C)n4)cc3)cc2)c[nH]1 [Compound W-31] | >10
CN(CC(F)(F)F)C(C)(C)C(=O)NC(c1nc(-c2ccc(-c3ccc(-c4c[nH]c(C(NC(=O)C(C)(C)N(C)CC(F)(F)F)C(C)(C)C)n4)cc3)cc2)c[nH]1)C(C)(C)C [Compound L-62] | >100
CC(C)[C@H](NC(=O)Cc1ccccc1Cl)c1ncc(-c2ccc(-c3ccc(-c4cnc([C@@H](NC(=O)Cc5ccccc5Cl)C(C)C)[nH]4)cc3)cc2)[nH]1 [Compound S-38] | >100
CC(C)(C)[C@H](NS(=O)(=O)C1(C)CC1)c1nc(-c2ccc(-c3ccc(-c4c[nH]c([C@@H](NS(=O)(=O)C5(C)CC5)C(C)(C)C)n4)cc3)cc2)c[nH]1 [Compound L-120] | >100
CC(O)C1(C(=O)N[C@H](c2ncc(-c3ccc(-c4ccc(-c5cnc([C@@H](NC(=O)C6(C(C)O)CC6)C(C)(C)C)[nH]5)cc4)cc3)[nH]2)C(C)(C)C)CC1 (single isomer, unassigned) [Compound B74] | >100
CC1(C)COC(C)(C(=O)N[C@H](c2nc(-c3ccc(-c4ccc(-c5c[nH]c([C@@H](NC(=O)C6(C)OCC(C)(C)CO6)C(C)(C)C)n5)cc4)cc3)c[nH]2)C(C)(C)C)OC1 [Compound P-154] | >100
CC(C)(C)OC(=O)NC1CCCCC1C(=O)N[C@H](c1nc(-c2ccc(-c3ccc(-c4c[nH]c([C@@H](NC(=O)C5CCCCC5NC(=O)OC(C)(C)C)C(C)(C)C)n4)cc3)cc2)c[nH]1)C(C)(C)C (single isomer, unassigned) [Compound W-23B] | >100
Cc1cc(-c2ccc(-c3c[nH]c([C@@H](NC(=O)C4(C)CCC(F)(F)CC4)C(C)C)n3)cc2)ccc1-c1c[nH]c([C@@H](NC(=O)C2(C)CCC(F)(F)CC2)C(C)C)n1.O=C(O)C(F)(F)F [Compound N-84] | >100
CC(C)[C@H](NC(=O)C1(C)CCCCC1)c1ncc(-c2ccc3c(c2)Cc2cc(-c4cnc([C@@H](NC(=O)C5(C)CCCCC5)C(C)C)[nH]4)ccc2-3)[nH]1.O=C(O)C(F)(F)F [Compound N-69] | >100
CC(C)(C)[C@H](NC(=O)C(=O)O)c1nc(-c2ccc(-c3ccc(-c4c[nH]c([C@@H](NC(=O)C(=O)O)C(C)(C)C)n4)cc3)cc2)c[nH]1 [Compound W-44] | >10
CC(C)(C)[C@H](NC(=O)C1CC12CCOCC2)c1ncc(-c2ccc(-c3ccc(-c4cnc([C@@H](NC(=O)C5CC56CCOCC6)C(C)(C)C)[nH]4)cc3)cc2)[nH]1 (single isomer, unassigned) [Compound B70] | >100
COC(=O)NN(C(=O)[C@@H]1CCC[C@H]1c1nc(-c2ccc(-c3ccc(-c4cnc([C@@H]5CCC[C@H]5C(=O)N(NC(=O)OC)C(C)C)[nH]4)cc3)cc2)c[nH]1)C(C)C [Compound V-1] | >100
CC(C)(C)C(=O)N[C@H](c1ncc(C#Cc2ccc3cc(-c4cnc([C@@H](NC(=O)C(C)(C)C)C(C)(C)C)[nH]4)ccc3c2)[nH]1)C(C)(C)C [Compound B2] | >100
CC(C)[C@H](NC(=O)N(C)C)c1nc(-c2ccc(-c3ccc(-c4c[nH]c([C@@H](NC(=O)N(C)C)C(C)C)n4)cc3)cc2)c[nH]1 [Compound S-228] | >100
CC(C)(C)[C@H](NC(=O)CC1CC(F)(F)C1)c1nc(-c2ccc(-c3ccc(-c4c[nH]c([C@@H](NC(=O)CC5CC(F)(F)C5)C(C)(C)C)n4)cc3)cc2)c[nH]1 [Compound N-120] | >100
CC(C)(C)[C@H](NC(=O)C1(C2(O)CCC(F)(F)CC2)CC1)c1ncc(C#Cc2ccc3cc(-c4cnc([C@@H](NC(=O)C5(C6(O)CCC(F)(F)CC6)CC5)C(C)(C)C)[nH]4)ccc3c2)[nH]1 [Compound B5B] | >100
CC(C)[C@H](NC(=O)c1cc(F)ccc1F)c1ncc(-c2ccc(-c3ccc(-c4cnc([C@@H](NC(=O)c5cc(F)ccc5F)C(C)C)[nH]4)cc3)cc2)[nH]1 [Compound S-63] | >100
CC1(C(=O)N[C@H](c2nc(-c3ccc(-c4ccc(-c5c[nH]c([C@@H](NC(=O)C6(C)CCCCC6)C(C)(C)C)n5)cc4)cc3)c[nH]2)C(C)(C)C)CCCCC1 [Compound P-47] | >100
CC(C)[C@H](NC(=O)C(C)(C)O)c1ncc(-c2ccc(-c3ccc(-c4cnc([C@@H](NC(=O)C(C)(C)O)C(C)C)[nH]4)cc3)cc2)[nH]1 [Compound P-71] | >100

Structure (SMILES) | Fold-Synergistic 1a (Q30E) [fold]
CC(C)[C@H](NC(=O)c1ccccc1F)c1nc(-c2ccc(-c3ccc(-c4c[nH]c([C@@H](NC(=O)c5ccccc5F)C(C)C)n4)c(F)c3)cc2)c[nH]1.O=C(O)C(F)(F)F [Compound N-92] | >100
CC(C)(C)OC(=O)N1CC(F)(F)CC1(C)C(=O)N[C@H](c1nc(-c2ccc(-c3ccc(-c4c[nH]c([C@@H](NC(=O)C5(C)CC(F)(F)CN5C(=O)OC(C)(C)C)C(C)(C)C)n4)cc3)cc2)c[nH]1)C(C)(C)C (single isomer, unassigned) [Compound W-78] | >100
CC1(C(=O)NC(c2nc(-c3ccc(-c4ccc(-c5c[nH]c(C(NC(=O)C6(C)CCCCC6=O)C(C)(C)C)n5)cc4)cc3)c[nH]2)C(C)(C)C)CCCCC1=O (mixture of isomers) [Compound Y-98] | >100
CC1(C(=O)NC(c2nc(-c3ccc(-c4ccc(-c5c[nH]c(C(NC(=O)C6(C)CCCOC6)C(C)(C)C)n5)cc4)cc3)c[nH]2)C(C)(C)C)CCCOC1 (mixture of isomers) [Compound Y-100] | >100
CC1(C(O)C(C)(C)C(=O)N[C@H](c2nc(-c3ccc(-c4ccc(-c5c[nH]c([C@@H](NC(=O)C(C)(C)C(O)C6(C)CC6)C(C)(C)C)n5)cc4)cc3)c[nH]2)C(C)(C)C)CC1 (single isomer, unassigned) [Compound N-151B] | >100
CC(C)(C)[C@H](NC(=O)c1ccc(C(F)(F)F)s1)c1nc(-c2ccc(-c3ccc(-c4c[nH]c([C@@H](NC(=O)c5ccc(C(F)(F)F)s5)C(C)(C)C)n4)cc3)cc2)c[nH]1 [Compound N-114] | >100
CC1(O)CC(C(=O)N[C@H](c2nc(-c3ccc(-c4ccc(-c5c[nH]c([C@@H](NC(=O)C6CC(C)(O)C6)C(C)(C)C)n5)cc4)cc3)c[nH]2)C(C)(C)C)C1 (single isomer, unassigned) [Compound W-169] | >100
CC1(C(O)C(C)(C)C(=O)N[C@H](c2nc(-c3ccc(-c4ccc(-c5c[nH]c([C@@H](NC(=O)C(C)(C)C(O)C6(C)CC6)C(C)(C)C)n5)cc4)cc3)c[nH]2)C(C)(C)C)CC1 (single isomer, unassigned) [Compound N-151C] | >100
O=C(N[C@H]1CCC[C@H]1c1nc(-c2ccc(-c3ccc(-c4c[nH]c([C@@H]5CCC[C@@H]5NC(=O)C5CCC(F)(F)CC5)n4)cc3)cc2)c[nH]1)C1CCC(F)(F)CC1 [Compound L-106] | >100
CC(C)(C)[C@H](NC(=O)C(O)(CF)CF)c1nc(-c2ccc(-c3ccc(-c4c[nH]c([C@@H](NC(=O)C(O)(CF)CF)C(C)(C)C)n4)cc3)cc2)c[nH]1 [Compound N-140] | >100
COC(C)(C)C(=O)N[C@H](c1nc(-c2ccc(-c3ccc(-c4c[nH]c([C@@H](NC(=O)C(C)(C)OC)C(C)(C)C)n4)cc3)cc2)c[nH]1)C(C)(C)C [Compound P-13] | >100
CC(C)(C)[C@H](NC(=O)[C@H]1C[C@@H]2[C@H](C1)C2(F)F)c1nc(-c2ccc(-c3ccc(-c4c[nH]c([C@@H](NC(=O)[C@H]5C[C@@H]6[C@H](C5)C6(F)F)C(C)(C)C)n4)cc3)cc2)c[nH]1 [Compound Y-10] | >100
COC(c1ccccc1)C1(C(=O)N[C@H](c2nc(-c3ccc(-c4ccc(-c5c[nH]c([C@@H](NC(=O)C6(C(OC)c7ccccc7)CC6)C(C)(C)C)n5)cc4)cc3)c[nH]2)C(C)(C)C)CC1 (single isomer, unassigned) [Compound N-137A] | >100
CC(C)(C(=O)N[C@H](c1nc(-c2ccc(-c3ccc(-c4c[nH]c([C@@H](NC(=O)C(C)(C)C(O)c5ccccc5)C(C)(C)C)n4)cc3)cc2)c[nH]1)C(C)(C)C)C(O)c1ccccc1 (single isomer, unassigned) [Compound N-127B] | >100
CC(C)[C@H](NC(=O)c1cncnc1)c1ncc(-c2ccc(-c3ccc(-c4cnc([C@@H](NC(=O)c5cncnc5)C(C)C)[nH]4)cc3)cc2)[nH]1 [Compound S-61] | >10
CC(C)(OCC(F)F)C(=O)N[C@H](c1nc(-c2ccc(-c3ccc(-c4c[nH]c([C@@H](NC(=O)C(C)(C)OCC(F)F)C(C)(C)C)n4)cc3)cc2)c[nH]1)C(C)(C)C [Compound N-116] | <10
CC(C)[C@H](NC(=O)C(C)(C)CO)c1ncc(-c2ccc(-c3ccc(-c4cnc([C@@H](NC(=O)C(C)(C)CO)C(C)C)[nH]4)cc3)cc2)[nH]1 [Compound P-67] | >100
COc1ccc2c(C(=O)N3CCC[C@H]3c3ncc(-c4ccc(-c5ccc(-c6cnc([C@@H]7CCCN7C(=O)c7nccc8cc(OC)ccc78)[nH]6)cc5)cc4)[nH]3)nccc2c1 [Compound S-198] | >100
CC(C)C(NC(=O)C1CC(O)CN1C(=O)OC(C)(C)C)c1nc(-c2ccc(-c3ccc(-c4c[nH]c(C(NC(=O)C5CC(O)CN5C(=O)OC(C)(C)C)C(C)C)n4)cc3)cc2)c[nH]1 (centres unmarked) [Compound W-100] | >100
